The structures appear in SMILES notation.

For this data set the following is noted: a range is the spread between reports.
`Cc1n[nH]c(=S)[nH]c1=O`: the melting point – broadly, the temperature of the solid-liquid transition – fell in the range of 218 to 220 °C.
`CC(C(=O)O)(c1ccccc1)c1ccccc1` gave a melting point of 173 to 176 °C.
Next, `CCOC(=O)c1ccccc1[N+](=O)[O-]`: 28 to 30 °C.
As to `CCCCNC(=S)NCCCC`, the melting point lay within 64 to 66 °C.
Next, `c1ccc2c(c1)Cc1ccccc1-2`: 112 to 116 °C; `O=C(O)CCCCCCCBr`: 38.5 to 39 °C.
The figure for `C=CCCCCC` is -120 to -119 °C.
For `N#Cc1cccc(O)c1`, the melting point was 79.5 to 82 °C.
Molecule `FC(F)(F)c1ccc(Cl)c(Cl)c1` gave a melting point of -12.5 to -12 °C.
Take `Cc1c(C(=O)O)cc([N+](=O)[O-])cc1[N+](=O)[O-]`: the melting point was 205 to 206 °C.
`ICCCCI` gave a melting point of 5.8 to 6 °C.
Next, `OC1c2ccccc2-c2ccccc21`: 154 to 156 °C.
The figure for `O=C(O)c1cccc(I)c1` is 187 to 188 °C; for `CN(C)c1cccc(O)c1` it is 82 to 86 °C.
For the molecule `O=Cc1ccccc1C(=O)O`, the melting point fell in the range of 97 to 99 °C.
The figure for `CCCCCCCCCCCCCCCCCC(=O)OCC` is 33 to 35 °C; for `c1ccc(-c2ccccn2)nc1` it is 70 to 72 °C; for `Cc1ccc(Cl)cc1Cl` it is -13.5 to -13 °C.
In turn, `Ic1ccc(-c2ccccc2)cc1` had a melting point of 112 to 114 °C.
Consider `CC(C)CC1CCCC1`, for which the melting point is -115 °C.
`c1ccc(-c2c3ccccc3c(-c3ccccc3)c3ccccc23)cc1`: the melting point was in the range of 246 to 251 °C.
For the molecule `NCCN1CCOCC1`, the melting point was in the range of 24 to 25.6 °C.
Next, `CCC=O`: -81 to -80 °C.
For the molecule `CCCCC(CC)COP(=O)(OCC(CC)CCCC)OCC(CC)CCCC` (configuration not stated), the melting point was -74 to -70 °C.
Next, `N#Cc1c(F)c(F)c(F)c(C#N)c1F`: 77 to 79 °C; `CC(C)C(C(C)C)C(C)C`: -82 to -81.7 °C; `O=C(O)c1ccc(F)cc1F`: 188 to 189 °C.
The molecule `Clc1ccccc1` yielded a melting point of -46 to -45 °C.
Take `O=C(CCC(=O)c1ccccc1)c1ccccc1`: the melting point was in the range of 144 to 146 °C.
The figure for `O=c1cn[nH]c(=O)[nH]1` is 274 to 276 °C.
Molecule `O=C(CC(=O)C(F)(F)F)c1cccs1` gave a melting point of 42 to 43 °C.
Next, `CC(C)c1ccc(CO)cc1`: 27 to 28 °C; `Clc1ccc(C(c2ccc(Cl)cc2)C(Cl)(Cl)Cl)cc1`: 108 to 110 °C; `CS(=O)(=O)c1ccc(C(O)C(CO)NC(=O)C(Cl)Cl)cc1` (configuration not stated): 165 °C.
With `COC(=O)CC(=O)OC`, the melting point is -62 to -61.9 °C.
`O=Cc1ccc(Cl)c(Cl)c1` had a melting point of 43 to 44 °C.
The molecule `O=C(C(F)(F)F)C(F)(F)F` yielded a melting point of -129 to -125 °C.
The molecule `COCC(C)O` (configuration not stated) showed a melting point of -100 to -95 °C.
With `O=[N+]([O-])c1ccccc1SSc1ccccc1[N+](=O)[O-]`, the melting point lay within 194 to 196 °C.
The molecule `Cc1cc(C)c(Br)cc1C` displayed a melting point of 71 to 73 °C.
Next, `O=C(Cl)c1ccc(Cl)cc1`: 12 to 16 °C; `CNc1ccc([N+](=O)[O-])cc1`: 152 to 153 °C.
As to `CCOc1ccc(OCC)cc1`, the melting point was in the range of 70 to 72 °C.
For `CC(=O)O[Si](C)(OC(C)=O)OC(C)=O`, the melting point was 40.5 to 43 °C.
`CC1=C(C)CCC1`: the melting point was -90.4 to -90 °C.
Next, `Cn1nnc2ccccc21`: 64.5 to 65 °C; `Cc1nc2ccccc2s1`: 12 to 14 °C.
For `CCN(C(C)C)C(C)C`, the melting point is -50 to -46 °C.
On to `O=C(Cl)c1ccco1`, for which the melting point was -2 to -1 °C.
In turn, `O=C(O)c1cccc(F)c1F` came in with a melting point of 162 to 164 °C.
`COc1ccc(C=Nc2ccccc2)cc1` displayed a melting point of 61 to 65 °C.
In turn, `NNC(=O)Nc1ccccc1` returned a melting point of 124 to 128 °C.
`Cc1cccc(C)c1N` showed a melting point of 8 to 12 °C.
Take `CCCCCCCCCCCCCCC`: the melting point lay in the range of 9.9 to 10 °C.
Regarding `CC(C)(C)c1ccccc1`, the melting point was -59.5 to -57.8 °C.
Next, `N#Cc1cccnc1`: 50 to 51 °C; `O=C(O)CSCc1ccccc1`: 61 to 62 °C.
Next, `CCCCCCCC(C)C`: -75 to -74.6 °C.
`CC1CCC1` registered a melting point of -162 °C.
The molecule `O=C(c1ccccc1)c1cccc(Cl)c1` gave a melting point of 82 to 83 °C.
Molecule `O=c1cc(CO)occ1O` gave a melting point of 154 °C.
In turn, `c1cc2c3c(cccc3c1)CC2` yielded a melting point of 93.4 to 95 °C.
Regarding `O=C(O)CC(O)C(=O)O` (configuration not stated), the melting point lay within 130 to 132 °C.
Consider `COc1ccc2c(c1)CCCC2=O`, for which the melting point is 78 to 79 °C.
Turning to `Cc1cccc(C(C)(C)C)c1`, the melting point was -41.4 to -41 °C.
In turn, `S=C=S` displayed a melting point of -112 °C.
`COc1cc(N)ccc1C` yielded a melting point of 56.5 to 58 °C.
The figure for `Nc1ccc(S(=O)(=O)c2ccc(N)cc2)cc1` is 176 to 177 °C.
Molecule `Nc1cc([N+](=O)[O-])cc([N+](=O)[O-])c1` returned a melting point of 161 to 163 °C.
Next, `Fc1cccc2ccccc12`: -13 to -9 °C; `CCCCCc1ccc(O)cc1`: 23 to 24 °C; `O=[N+]([O-])c1cccc(CBr)c1`: 58 to 59.3 °C.
In the case of `BrCC(Br)(Br)CBr`, the melting point was in the range of 10.5 to 11 °C.
Take `CC(C)=O`: the melting point was -95 to -94 °C.
The figure for `Brc1cccnc1` is -27.3 to -27 °C; for `CCCCCCI` it is -75 to -74.2 °C; for `COc1cc(Cl)ccc1N` it is 51 to 52 °C.
Take `CC(=O)OCC(C)C`: the melting point is -99 to -98.8 °C.
`CCCCCCc1ccc(O)cc1O` displayed a melting point of 65 to 68 °C.
`Oc1ccc(Cl)c(Cl)c1` came in with a melting point of 66 to 68 °C.
`CC(=O)Oc1ccc(OC(C)=O)cc1` had a melting point of 121 to 125 °C.
`Cc1ccc([N+](=O)[O-])cc1` returned a melting point of 51 to 54 °C.
`Cc1ccc(O)c(C(=O)O)c1`: the melting point fell in the range of 151 to 153 °C.
Next, `Oc1c(Br)cccc1Br`: 55 to 56.5 °C.
The figure for `COC(=O)c1cccc(C(=O)OC)c1` is 67.5 to 69 °C; for `CCc1nnc(N)s1` it is 200 to 201 °C.
The molecule `CN(C)c1ccc(C(=O)c2ccccc2)cc1` gave a melting point of 89 to 92.5 °C.
Next, `c1ccc2c(c1)c1ccccc1c1ccccc21`: 196 to 199 °C; `O=c1cccccc1O`: 50.8 to 53 °C; `CN(C=O)c1ccccc1`: 11 to 14.5 °C.
As to `O=[N+]([O-])c1ccc(Nc2ccccc2)c([N+](=O)[O-])c1`, the melting point is 159 to 160 °C.
Next, `CC(=O)c1ccc2ccccc2c1O`: 99 to 101 °C; `Oc1ccc2ccccc2c1/N=N/c1ccccc1`: 132 to 134 °C; `Cc1ccccc1CBr`: 19 to 21 °C.
In turn, `C#CC1(O)CCCC1` registered a melting point of 25 to 27 °C.
For `CCOC(=O)c1c[nH]nc1N`, the melting point was 103 to 106 °C.
`CC(=O)N(O)CCCCCNC(=O)CCC(=O)N(O)CCCCCNC(=O)CCC(=O)N(O)CCCCCN` came in with a melting point of 139 to 140 °C.
As for `C#Cc1ccccc1`, the melting point was -45 to -44.8 °C.
Take `N#CCCCCC#N`: the melting point was in the range of 1 to 2 °C.
As for `Cc1ccc(-c2ccc(C)cc2)cc1`, the melting point was in the range of 120 to 121 °C.
Regarding `O/N=C(\c1ccccc1)C(O)c1ccccc1` (configuration not stated), the melting point lay within 151 to 154 °C.
In the case of `O=[N+]([O-])C(Br)(CO)CO`, the melting point was in the range of 127 to 132 °C.
`CNc1ccccc1[N+](=O)[O-]` displayed a melting point of 35 to 38 °C.
The figure for `Cc1cc(C)[nH]n1` is 107 to 108 °C; for `CCCCCCCCCCCCCCCCCCCCCCCCCCCCCC` it is 65.8 to 67 °C; for `CCC(C)(C)C(C)(C)C` it is -10 to -9.8 °C.
Next, `CCc1ccccc1N`: -47 to -44 °C; `Cc1cc2ccccc2[nH]1`: 58 to 61 °C; `Nc1cccc2ncccc12`: 108 to 110 °C.
`N#Cc1ccccc1Br`: the melting point is 55 to 55.5 °C.
Turning to `Cc1cc(O)c(C(C)C)cc1Cl`, the melting point was 59 to 63 °C.
The figure for `Cc1cc(C)cc(C(C)(C)C)c1` is -22 to -18 °C; for `NC(=O)c1cccc(Br)c1` it is 155 °C.
`CC1CCC2CC1C2(C)C` (configuration not stated) registered a melting point of -53 to -50 °C.
The figure for `COC(C)OC` is -113 °C.
`Nc1ccc(-c2ccccc2)cc1` displayed a melting point of 53 to 54 °C.
On to `Brc1cc(Br)cc(Br)c1`, for which the melting point lay within 122 to 124 °C.
The molecule `O=C(O)Cc1ccc(O)cc1` registered a melting point of 149 to 152 °C.
For the molecule `CCCCCCCCCC(=O)Cl`, the melting point is -35 to -34.5 °C.
Next, `OCC1CCCNC1` (configuration not stated): 60 to 61 °C.
In turn, `CC(C)N(CCC(C(N)=O)(c1ccccc1)c1ccccn1)C(C)C` (configuration not stated) yielded a melting point of 94.8 °C.
For `CC1(C)CC(=O)CC(=O)C1`, the melting point came to 148 °C.
The molecule `NCCNCCN` displayed a melting point of -40 to -35 °C.
As to `Clc1cccc(-c2ccccc2)c1`, the melting point fell in the range of 16 to 18 °C.
Turning to `CCC1(C)CCCC1`, the melting point is -144 °C.
For `Nc1cccc(N)n1`, the melting point fell in the range of 120 to 122 °C.
Turning to `c1ccc(OCCOc2ccccc2)cc1`, the melting point lay within 95 to 98 °C.
As for `Cc1cccc2c(C)cccc12`, the melting point was in the range of 80 to 82 °C.
Regarding `O=C=S`, the melting point was -139 °C.
The figure for `Cc1ccc(N)cc1C` is 50 to 51 °C.
`CCC(=O)OC`: the melting point is -88 to -87.5 °C.
The figure for `CC1=C(/C=C/C(C)=C/C=C/C(C)=C/C=C/C=C(C)/C=C/C=C(C)/C=C/C2=C(C)CCCC2(C)C)C(C)(C)CCC1` is 178 to 183 °C; for `Clc1cc(Cl)cc(Cl)c1` it is 63.4 to 65 °C; for `O=C1CCC(N2C(=O)c3ccccc3C2=O)C(=O)N1` (configuration not stated) it is 270 to 275 °C.
In turn, `O=C(O)c1ccccc1-c1ccc(C(F)(F)F)cc1` returned a melting point of 169 to 170 °C.
`O=C(c1ccccc1)c1ccc(Br)cc1`: the melting point was 81 to 82.5 °C.
`Cc1ccc([N+](=O)[O-])cc1Br`: the melting point fell in the range of 76 to 78 °C.

These data come from a melting point compilation (Tetko et al.).
